How the values were obtained:
polyQ peptides = assay: Peptidase inhibitor study in cells co-expressing DnaJB6, Western blot against polyQ; assay type: cell-based; conditions: inhibitor in combination with DnaJB6, treated for eight hours, FIG. 8B
Method: (§1) Cytosolic extracts were generated by lysing cells with 0.1% Triton X-100 for 30 minutes at 4° C., and supernatant was used after spinning down the lysate. 20 μg of cytosolic protein lysates were separated by 18% SDS-PAGE and transferred to Protan nitrocellulose membranes. Membranes were blocked in 5% dry milk in TBS containing 0.3% tween and probed with anti-Polyglutamine 1C2 (MAB1574, Millipore). Preparation of SDS-soluble and SDS-insoluble protein fractions was described before (example 1 and Carra et al., 2008). For peptidase inhibitory studies, transfected cells were treated for eight hours with different peptidase inhibitors before lysates were generated for Western blotting.
To elucidate which clearance pathway led to the degradation of the polyQ peptides, several inhibitors were used in combination with DnaJB6 and DnaJB8. Cysteine proteases were inhibited by E-64, aspartyl proteases by pepstatin A, metalloproteases by bestatin, serine proteases by phenylmethylsulfonyl (PMSF), proteasomes were inhibited by MG-132 and macroautophagy was inhibited by 3-methyladenine (3-MA).

[1] = tested on: polyQ peptides derived from GFP-Ub-Q65; assay: Western blot against polyQ (1C2) of cells expressing GFP-Ub-Q65 with altered TPPII activity; assay type: cell-based; conditions: for polyQ peptide levels: cells expressing GFP-Ub-Q65, TPPII co-expressed or inhibited, FIG. 10 panel A
Method: as §1
Large polyQ-peptides are preferably cleaved by endo-peptidases, as a few cleavages will result in smaller polyQ peptides below the disease-threshold that can be targeted by recycling amino-peptidases. To measure endo-peptidase activity against glutamines, we designed a probe containing 8 glutamines, flanked by a fluorophore (left) and a quencher (right). When the glutamines are cleaved, the quencher is released from the fluorophore, leading to fluorescence. Since the termini themselves are protected against exo-peptidases, only endo-peptidases can handle the peptide by cleaving the Q stretch. […] Since this experiment was performed with a small Q peptide, we next examined whether TPPII was able to prevent accumulation and aggregation of polyQ peptides derived from GFP-Ub-Q65. […] Some additional high molecular weight bands were present, representing oligomeric complexes. […] When testing two TPPII variants that have an altered conformation and lowered endo- peptidase activity, the levels of polyQ peptides (and resulting aggregates) increased again, showing that TPPII complex formation affects polyQ peptide degradation. […] This was achieved by either co-expressing TPPII or adding the specific inhibitor of TPPII, butabindide. […] Similarly, polyQ fragments generated by the proteasome upon degradation of polyQ expanded proteins were targeted by TPPII. […]

polyQ peptides (Q65) = assay: SDS-soluble and SDS-insoluble fractions stained against polyQ; assay type: cell-based; conditions: co-expression with Q65 peptides; for amount of polyQ peptides in the SDS-insoluble fraction: FIG. 8A
Method: Cytosolic extracts were generated by lysing cells with 0.1% Triton X-100 for 30 minutes at 4° C., and supernatant was used after spinning down the lysate. 20 μg of cytosolic protein lysates were separated by 18% SDS-PAGE and transferred to Protan nitrocellulose membranes. Membranes were blocked in 5% dry milk in TBS containing 0.3% tween and probed with 1:1000 anti-GFP (Molecular Probes), 1:100 anti-Ub (SIGMA) or the anti-Polyglutamine 1C2 (MAB1574, Millipore). Polyclonal Horseradish Peroxidase (HRP) conjugated secondary antibodies, anti-rabbit (Sigma) or anti-mouse (DAKO) were used 1:10.000 to detect the primary antibodies via Lumi-lightPLUS westernblotting substrate (Roche). Preparation of SDS-soluble and SDS-insoluble protein fractions was described before (Carra et al., 2008). Briefly, cells were trypsinized, homogenized, and heated for 10 min at 99° C. in sample buffer (70 mM Tris pH 6.8, 1.5% SDS, 20% glycerol) supplemented with 50 mM DTT 72 hours after transfection. Cell lysates were centrifuged for at least 30 minutes at 14.000 rpm at room temperature. Supernatants were used as SDS-soluble fraction to which 0.05% bromophenol blue was added. Pellets represented SDS-insoluble fractions and were dissolved in 100% formic acid, incubated 30 minutes at 37° C., lyophilized overnight in a speed vac (Eppendorf), and resuspended in a ¼ of the volume of sample buffer containing 0.05% bromophenol blue. Samples were separated on either 18% SDS-PAGE (anti-polyQ), or 12.5% SDS-PAGE (anti-GFP) and further treated as Western blots.
as §1, with “For peptidase inhibitory studies, transfected cells were treated for eight hours with different peptidase inhibitors before lysates were generated for Western blotting.” left out

HEK293T cells = assay: Scoring of cells with fluorescent aggregates by fluorescence microscopy; assay type: cell-based, Human
Method: Human embryonic kidney cells (HEK293T) and Mel JuSo fibroblast cells where cultured in IMDM (GIBCO) supplemented with 10% FCS and penicillin/streptomycin/L-glutamine. The cells where transiently transfected with Fugene6 (Roche) and analyzed at indicated time-points after transfection. Mouse STHdh^+/+(Q7) cells (kindly provided by Marcy MacDonald) (Trettel et al, 2000) and N2A neuroblastoma cells were cultured in DMEM supplemented with 10% FCS and penicillin/streptomycin/L-glutamine. Neuronal cells where transiently transfected with Lipofectamine 2000 (Invitrogen). Mouse STHdh^+/+(Q7) cells were incubated at 32° C. For toxicity measurements, N2A cells were analyzed by FACS LSRII for GFP fluorescence 24 or 48 hours after transfection, and the percentage of GFP-positive cells was quantified.
HEK293T cells were transfected with indicated constructs and the percentages of aggregates were scored using an inverted fluorescence microscope (Leica DMR). For imaging, Mel Juso cells were transiently transfected with indicated constructs and images where obtained using a confocal microscope (Leica SP2) using a 63× objective. Note that some pictures show ‘over-exposed’ fluorescent aggregates in order to visualize non-sequestered, cytoplasmic staining. […]

Row | Molecule | polyQ peptide levels despite DnaJB6 (polyQ peptides) | polyQ peptide levels [1] | amount of polyQ peptides in the SDS-insoluble fraction (polyQ peptides (Q65)) | aggregation on co-expression with GFP-Ub-Q65 (HEK293T cells) | further results
1 | CC(C)C[C@H](NC(=O)[C@H]1O[C@@H]1C(=O)O)C(=O)NCCCCN=C(N)N [E-64] | re-appearance of polyQ peptides |  |  |  | 
2 | O=S(=O)(F)Cc1ccccc1 [PMSF, phenylmethylsulfonyl] | re-appearance of polyQ peptides |  |  |  | 
3 | tripeptidyl peptidase II [TPPII] |  | reduced polyQ levels |  |  | aggregated and low-molecular weight Q65 peptide levels ([1]; co-expression with GFP-Ub-Q65, immunoblot 1C2, FIG. 7): decrease in both aggregated and low-molecular weight Q65 peptides
4 | DnaJB6: member of the Hsp40/DnaJ heat shock protein family, co-expressed chaperone |  |  | remarkably reduced | considerable decrease in aggregation | polyQ peptides in the SDS-soluble fraction (polyQ peptides (Q65); FIG. 8A and B): marked decrease
5 | CCCCNC(=O)[C@@H]1Cc2ccccc2N1C(=O)[C@@H](N)CC [butabindide, reference compound] |  | accumulation of polyQ peptides |  |  | 
6 | DnaJB8: member of the Hsp40/DnaJ heat shock protein family, co-expressed chaperone (protein, UniProt Q8NHS0 1-232, looked up) DnaJ homolog subfamily B …: MANYYEVLGVQASASPEDIKKAYRKLALRWHPDKNPDNKEEAEKKFKLVSEAYEVLSDSKKRSLYDRAGCDSWRAGGGASTPYHSPFDTGYTFRNPEDIFREFFGGLDPFSFEFWDSPFNSDRGGRGHGLRGAFSAGFGEFPAFMEAFSSFNMLGCSGGSHTTFSSTSFGGSSSGSSGFKSVMSSTEMINGHKVTTKRIVENGQERVEVEEDGQLKSVTVNGKEQLKWMDSK |  |  | remarkably reduced | considerable decrease in aggregation | 

Reference: patent publication US20120164128A1, “MEANS AND METHODS FOR COUNTERACTING POLYQ EXPANSION DISORDERS” (Academisch Medisch Centrum, priority 2009, published 2012)
